Where two headings read alike, the source gives them in different places.
How the values were obtained:
DYRK1A [1] = target: T1, DYRK1A (Homo sapiens, UniProt Q13627); experiment: SF3B1 Thr434 phosphorylation in HeLa cells (immunoblot); type: cell-based; settings: HeLa cells expressing GFP-SF3B1-NT, 18 h
T1 construct: purchased ProQinase (Freiburg, Germany)
Procedure: Fig 4 Inhibition of SF3B1 phosphorylation by DYRK1A in HeLa cells. HeLa cells expressing GFP-SF3B1-NT were treated with the indicated compounds for 18 h. The phosphorylation state of SF3B1 was determined by immunoblotting with pT434 antibody, and the results were normalized to the total amount of SF3B1 immunoreactivity. A, Representative western blots. […] The vertical line indicates where irrelevant lanes were deleted from the final image. B, The column diagram summarizes the quantitative evaluation of 3–6 experiments for each compound (means + SD).
(500 ng/well) using FuGENE HD (Promega, Mannheim, Germany).

DYRK1A [2] = target: T1, DYRK1A; experiment: Kinase-GLO luminescent kinase assay; type: biochemical; settings: 1 μM compound; means of at least 3 measurements
Procedure: (§1) Bacterial expression plasmids for GST-DYRK1A-ΔC and GST-DYRK2 have been described earlier. […] Expression in logarithmically growing E. coli culture was performed for 3 h at 37°C (GST-DYRK1A-ΔC and GST-DYRK2), 3 h at 26°C (GST-HIPK2cat), over night at 28°C (GST-CLK1cat) or over night at room temperature (GST-DYRK1Bcat).
(§2) Compounds were screened for inhibitory effects against GST-DYRK1A-ΔC, GST-DYRK1Bcat, GST-DYRK2, GST-CLK1cat or GST-HIPK2cat using the Kinase-GLO Luminescent Kinase Assay from Promega. Assays were performed in a total volume of 10 μL in kinase-buffer (25 mM Hepes pH 7.4, 0.5 mM DTT, 5 mM MgCl2, 5 μM ATP) with appropriate peptide substrates (20 μM DYRKtide for the DYRKs and 100 μM DYRKtide for HIPK2, […]; or 100 μM RS domain-derived peptide for CLK1, […]). Assays were started with this amount of a kinase preparation that consumed approximately 90% of the ATP in the assay (linear range of the kinase titration curve). The reactions were run at room temperature for 30 min before 10 μL Kinase-GLO reagent was added. After incubation at room temperature for additional 10 min, luminescence was recorded for 1 s.

DYRK2 [3] = target: T2, DYRK2 (Homo sapiens, UniProt Q92630); experiment: Kinase-GLO luminescent kinase assay; type: biochemical; settings: 1 μM compound; means of at least 3 measurements
T2 construct: purchased ProQinase (Freiburg, Germany)
T2 sequence (Q92630 1-601): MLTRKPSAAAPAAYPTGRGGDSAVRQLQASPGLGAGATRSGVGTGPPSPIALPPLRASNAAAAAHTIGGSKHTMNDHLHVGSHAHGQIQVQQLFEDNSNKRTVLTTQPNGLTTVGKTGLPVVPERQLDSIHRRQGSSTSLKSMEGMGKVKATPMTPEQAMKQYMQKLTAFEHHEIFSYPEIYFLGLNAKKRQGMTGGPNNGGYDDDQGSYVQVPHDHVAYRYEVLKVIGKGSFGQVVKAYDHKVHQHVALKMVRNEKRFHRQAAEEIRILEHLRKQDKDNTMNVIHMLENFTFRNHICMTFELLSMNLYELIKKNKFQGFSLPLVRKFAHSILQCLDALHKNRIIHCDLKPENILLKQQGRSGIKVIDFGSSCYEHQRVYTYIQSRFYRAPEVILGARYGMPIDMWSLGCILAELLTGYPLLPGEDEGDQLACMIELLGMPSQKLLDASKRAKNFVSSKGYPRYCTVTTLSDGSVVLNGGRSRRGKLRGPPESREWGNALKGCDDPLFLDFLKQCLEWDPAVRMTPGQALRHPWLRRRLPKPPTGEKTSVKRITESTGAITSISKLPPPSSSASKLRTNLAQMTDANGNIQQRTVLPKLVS
Procedure: as §1, §2

DYRK1A [4] = settings: cited from earlier work
DYRK2 [5] = target: T2, DYRK2; settings: cited from earlier work
Haspin = settings: cited from earlier work
CLK1 [6] = target: T3, CLK1 (Homo sapiens, UniProt P49759); experiment: Kinase-GLO luminescent kinase assay; type: biochemical; parameters: made in house; host or cells: E. coli; settings: 1 μM compound; means of at least 3 measurements
Procedure: as §1, §2

DYRK1B [7] = target: T4, DYRK1B (Homo sapiens, UniProt Q9Y463); experiment: Kinase-GLO luminescent kinase assay; type: biochemical; parameters: made in house; host or cells: E. coli; settings: 1 μM compound; means of at least 3 measurements
Procedure: as §1, §2

HIPK2 [8] = target: T5, HIPK2 (Homo sapiens, UniProt Q9H2X6); experiment: Kinase-GLO luminescent kinase assay; type: biochemical; parameters: made in house; host or cells: E. coli; settings: 10 μM compound; means of at least 3 measurements
Procedure: as §1, §2

CLK1 [9] = target: T3, CLK1; parameters: purchased ProQinase (Freiburg, Germany); settings: cited from earlier work
DYRK1B [10] = target: T4, DYRK1B; parameters: purchased ProQinase (Freiburg, Germany); settings: cited from earlier work
HIPK1 = HIPK1 (Homo sapiens, UniProt Q86Z02); parameters: purchased ProQinase (Freiburg, Germany); settings: cited from earlier work
Sequence of HIPK1 (Q86Z02 whole entry): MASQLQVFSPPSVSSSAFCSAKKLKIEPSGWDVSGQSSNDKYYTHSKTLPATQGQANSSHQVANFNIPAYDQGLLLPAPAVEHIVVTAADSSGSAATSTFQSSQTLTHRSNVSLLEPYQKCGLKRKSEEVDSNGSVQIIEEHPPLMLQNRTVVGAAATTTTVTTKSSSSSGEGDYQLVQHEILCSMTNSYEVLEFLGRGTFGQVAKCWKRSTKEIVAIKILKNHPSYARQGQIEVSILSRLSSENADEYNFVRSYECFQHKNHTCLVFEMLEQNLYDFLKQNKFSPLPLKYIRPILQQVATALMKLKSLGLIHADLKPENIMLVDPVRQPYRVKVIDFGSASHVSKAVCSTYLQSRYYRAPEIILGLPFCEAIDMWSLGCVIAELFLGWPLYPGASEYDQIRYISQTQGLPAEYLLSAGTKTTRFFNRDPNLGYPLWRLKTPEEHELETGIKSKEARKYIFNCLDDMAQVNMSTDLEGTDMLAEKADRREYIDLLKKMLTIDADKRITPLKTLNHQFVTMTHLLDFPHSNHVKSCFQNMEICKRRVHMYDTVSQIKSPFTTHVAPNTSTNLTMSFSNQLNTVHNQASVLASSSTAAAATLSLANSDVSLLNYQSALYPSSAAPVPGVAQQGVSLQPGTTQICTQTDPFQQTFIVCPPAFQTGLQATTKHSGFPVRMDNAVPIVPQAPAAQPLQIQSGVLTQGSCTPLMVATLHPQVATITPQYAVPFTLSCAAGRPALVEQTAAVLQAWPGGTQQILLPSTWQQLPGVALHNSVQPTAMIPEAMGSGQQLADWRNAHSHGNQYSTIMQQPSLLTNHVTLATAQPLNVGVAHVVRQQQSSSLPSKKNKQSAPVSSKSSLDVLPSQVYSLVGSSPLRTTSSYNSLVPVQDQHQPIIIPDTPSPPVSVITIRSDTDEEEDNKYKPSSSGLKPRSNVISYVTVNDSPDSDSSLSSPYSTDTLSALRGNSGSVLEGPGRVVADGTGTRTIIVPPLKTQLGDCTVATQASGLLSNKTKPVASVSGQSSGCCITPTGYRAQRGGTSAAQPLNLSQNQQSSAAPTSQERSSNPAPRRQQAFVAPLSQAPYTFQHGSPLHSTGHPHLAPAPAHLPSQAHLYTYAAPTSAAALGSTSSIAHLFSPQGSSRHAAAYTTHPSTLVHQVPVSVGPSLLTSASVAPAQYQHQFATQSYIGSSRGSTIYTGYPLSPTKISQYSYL

HIPK2 [11] = target: T5, HIPK2; parameters: purchased ProQinase (Freiburg, Germany); settings: cited from earlier work
HIPK3 = HIPK3 (Homo sapiens, UniProt Q9H422); parameters: purchased ProQinase (Freiburg, Germany); settings: cited from earlier work
Sequence of HIPK3 (Q9H422 whole entry): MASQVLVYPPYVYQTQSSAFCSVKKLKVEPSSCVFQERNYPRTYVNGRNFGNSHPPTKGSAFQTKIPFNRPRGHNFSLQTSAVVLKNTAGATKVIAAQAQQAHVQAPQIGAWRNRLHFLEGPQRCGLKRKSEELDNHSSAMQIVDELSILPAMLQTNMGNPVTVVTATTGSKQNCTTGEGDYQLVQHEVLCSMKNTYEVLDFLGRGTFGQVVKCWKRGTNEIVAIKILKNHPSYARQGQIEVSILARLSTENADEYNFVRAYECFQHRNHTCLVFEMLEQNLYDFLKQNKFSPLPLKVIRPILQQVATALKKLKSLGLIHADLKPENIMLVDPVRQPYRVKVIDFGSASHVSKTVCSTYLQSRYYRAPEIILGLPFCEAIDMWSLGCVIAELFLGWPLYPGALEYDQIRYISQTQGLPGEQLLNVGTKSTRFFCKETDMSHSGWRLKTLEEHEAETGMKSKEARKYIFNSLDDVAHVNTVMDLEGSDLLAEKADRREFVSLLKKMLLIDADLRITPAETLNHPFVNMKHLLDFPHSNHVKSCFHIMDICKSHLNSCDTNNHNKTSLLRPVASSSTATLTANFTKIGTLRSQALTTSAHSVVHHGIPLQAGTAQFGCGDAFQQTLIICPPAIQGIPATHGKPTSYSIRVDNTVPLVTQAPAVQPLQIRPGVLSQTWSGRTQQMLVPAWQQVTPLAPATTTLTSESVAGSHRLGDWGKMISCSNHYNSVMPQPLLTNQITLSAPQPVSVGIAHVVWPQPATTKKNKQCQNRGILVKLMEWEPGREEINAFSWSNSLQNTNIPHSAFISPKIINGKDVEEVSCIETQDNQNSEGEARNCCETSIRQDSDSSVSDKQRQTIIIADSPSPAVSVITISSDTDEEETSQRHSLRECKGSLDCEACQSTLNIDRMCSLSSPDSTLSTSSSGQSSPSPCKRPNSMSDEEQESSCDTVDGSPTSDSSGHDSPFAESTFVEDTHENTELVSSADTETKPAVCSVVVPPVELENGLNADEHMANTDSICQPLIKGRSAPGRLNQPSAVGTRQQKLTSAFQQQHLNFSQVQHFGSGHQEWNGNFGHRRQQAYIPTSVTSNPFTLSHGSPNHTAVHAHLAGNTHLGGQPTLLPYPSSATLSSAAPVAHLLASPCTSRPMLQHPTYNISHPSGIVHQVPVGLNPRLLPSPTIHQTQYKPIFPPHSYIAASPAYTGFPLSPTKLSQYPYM

HIPK4 = target: T6, HIPK4 (Homo sapiens, UniProt Q8NE63); parameters: purchased ProQinase (Freiburg, Germany); settings: cited from earlier work
T6 sequence (Q8NE63 1-616): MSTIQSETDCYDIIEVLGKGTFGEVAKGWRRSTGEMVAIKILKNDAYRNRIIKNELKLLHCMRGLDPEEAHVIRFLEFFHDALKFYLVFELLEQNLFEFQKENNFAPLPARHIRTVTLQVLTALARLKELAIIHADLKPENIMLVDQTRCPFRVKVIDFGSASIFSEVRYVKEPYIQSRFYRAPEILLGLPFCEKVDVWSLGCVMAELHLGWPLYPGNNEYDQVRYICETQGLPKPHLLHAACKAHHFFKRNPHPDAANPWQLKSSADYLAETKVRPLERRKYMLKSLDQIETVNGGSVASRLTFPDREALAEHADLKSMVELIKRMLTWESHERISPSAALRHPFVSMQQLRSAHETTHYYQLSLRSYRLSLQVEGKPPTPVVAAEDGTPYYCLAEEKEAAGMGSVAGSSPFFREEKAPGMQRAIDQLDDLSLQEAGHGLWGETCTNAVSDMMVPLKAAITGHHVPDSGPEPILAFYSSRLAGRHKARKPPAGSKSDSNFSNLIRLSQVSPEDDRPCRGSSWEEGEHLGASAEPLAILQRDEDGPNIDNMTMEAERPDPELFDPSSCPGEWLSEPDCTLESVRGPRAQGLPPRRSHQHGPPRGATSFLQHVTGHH

IRAK1 = IRAK1 (Homo sapiens, UniProt P51617); parameters: purchased ProQinase (Freiburg, Germany); settings: 10 μM; cited from earlier work
Sequence of IRAK1 (P51617 whole entry): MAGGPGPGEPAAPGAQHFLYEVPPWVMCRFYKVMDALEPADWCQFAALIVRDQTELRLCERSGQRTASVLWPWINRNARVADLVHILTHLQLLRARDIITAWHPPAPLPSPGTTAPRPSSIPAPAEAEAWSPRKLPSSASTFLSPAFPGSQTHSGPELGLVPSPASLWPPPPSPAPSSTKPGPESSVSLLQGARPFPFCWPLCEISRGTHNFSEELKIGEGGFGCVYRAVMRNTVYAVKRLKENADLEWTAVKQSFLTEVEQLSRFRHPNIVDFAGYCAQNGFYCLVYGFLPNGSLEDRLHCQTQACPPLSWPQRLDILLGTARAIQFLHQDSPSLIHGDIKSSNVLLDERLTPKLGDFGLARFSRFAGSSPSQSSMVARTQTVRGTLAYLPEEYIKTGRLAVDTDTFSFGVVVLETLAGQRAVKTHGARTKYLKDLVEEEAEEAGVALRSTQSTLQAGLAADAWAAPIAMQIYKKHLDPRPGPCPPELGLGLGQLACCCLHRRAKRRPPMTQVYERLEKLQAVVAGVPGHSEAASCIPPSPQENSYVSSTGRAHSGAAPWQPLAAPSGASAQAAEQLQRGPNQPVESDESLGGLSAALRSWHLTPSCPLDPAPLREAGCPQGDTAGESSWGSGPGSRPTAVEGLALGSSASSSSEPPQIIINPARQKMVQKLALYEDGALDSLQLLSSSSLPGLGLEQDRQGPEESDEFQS

PIM1 = PIM1 (Homo sapiens, UniProt P11309); parameters: purchased ProQinase (Freiburg, Germany); settings: cited from earlier work
Sequence of PIM1 (P11309 whole entry): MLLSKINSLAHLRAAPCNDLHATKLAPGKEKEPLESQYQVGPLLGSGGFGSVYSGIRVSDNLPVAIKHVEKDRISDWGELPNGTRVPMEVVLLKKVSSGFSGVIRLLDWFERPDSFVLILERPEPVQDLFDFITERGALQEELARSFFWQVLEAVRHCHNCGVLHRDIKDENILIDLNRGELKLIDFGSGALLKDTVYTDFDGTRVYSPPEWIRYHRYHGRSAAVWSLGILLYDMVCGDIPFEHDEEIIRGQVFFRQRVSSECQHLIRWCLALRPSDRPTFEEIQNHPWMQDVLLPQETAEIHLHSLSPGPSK

PIM2 = PIM2 (Homo sapiens, UniProt Q9P1W9); parameters: purchased ProQinase (Freiburg, Germany); settings: cited from earlier work
Sequence of PIM2 (Q9P1W9 whole entry): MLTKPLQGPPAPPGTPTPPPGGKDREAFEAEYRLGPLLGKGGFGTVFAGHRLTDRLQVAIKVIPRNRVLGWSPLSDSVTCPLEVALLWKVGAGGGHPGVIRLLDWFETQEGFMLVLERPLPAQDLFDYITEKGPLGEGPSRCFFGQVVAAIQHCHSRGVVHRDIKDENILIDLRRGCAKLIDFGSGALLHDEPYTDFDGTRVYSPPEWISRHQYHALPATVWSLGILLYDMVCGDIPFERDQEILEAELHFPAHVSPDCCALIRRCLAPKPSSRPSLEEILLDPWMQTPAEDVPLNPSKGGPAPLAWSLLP

PIM3 = PIM3 (Homo sapiens, UniProt Q86V86); parameters: purchased ProQinase (Freiburg, Germany); settings: cited from earlier work
CLK2 = target: T7, CLK2 (Homo sapiens, UniProt P49760); settings: cited from earlier work
T7 construct: purchased ProQinase (Freiburg, Germany)
T7 sequence (P49760 whole entry): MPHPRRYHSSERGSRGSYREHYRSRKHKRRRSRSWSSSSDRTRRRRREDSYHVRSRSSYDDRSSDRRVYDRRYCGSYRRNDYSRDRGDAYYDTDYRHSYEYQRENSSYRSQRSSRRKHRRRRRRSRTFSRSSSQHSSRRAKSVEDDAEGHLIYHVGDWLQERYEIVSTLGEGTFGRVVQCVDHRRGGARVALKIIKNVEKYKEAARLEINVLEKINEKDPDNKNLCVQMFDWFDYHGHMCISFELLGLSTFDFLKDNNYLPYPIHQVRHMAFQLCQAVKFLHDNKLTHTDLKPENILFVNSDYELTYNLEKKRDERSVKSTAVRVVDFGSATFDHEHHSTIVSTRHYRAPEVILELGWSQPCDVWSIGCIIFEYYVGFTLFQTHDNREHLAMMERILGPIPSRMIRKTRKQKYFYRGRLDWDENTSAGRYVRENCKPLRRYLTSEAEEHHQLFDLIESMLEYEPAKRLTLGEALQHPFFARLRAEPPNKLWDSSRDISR

CLK3 = target: T8, CLK3 (Homo sapiens, UniProt P49761); settings: cited from earlier work
T8 construct: purchased ProQinase (Freiburg, Germany)

DYRK3 = target: T9, DYRK3 (Homo sapiens, UniProt O43781); settings: cited from earlier work
T9 construct: purchased ProQinase (Freiburg, Germany)
T9 sequence (O43781 1-588): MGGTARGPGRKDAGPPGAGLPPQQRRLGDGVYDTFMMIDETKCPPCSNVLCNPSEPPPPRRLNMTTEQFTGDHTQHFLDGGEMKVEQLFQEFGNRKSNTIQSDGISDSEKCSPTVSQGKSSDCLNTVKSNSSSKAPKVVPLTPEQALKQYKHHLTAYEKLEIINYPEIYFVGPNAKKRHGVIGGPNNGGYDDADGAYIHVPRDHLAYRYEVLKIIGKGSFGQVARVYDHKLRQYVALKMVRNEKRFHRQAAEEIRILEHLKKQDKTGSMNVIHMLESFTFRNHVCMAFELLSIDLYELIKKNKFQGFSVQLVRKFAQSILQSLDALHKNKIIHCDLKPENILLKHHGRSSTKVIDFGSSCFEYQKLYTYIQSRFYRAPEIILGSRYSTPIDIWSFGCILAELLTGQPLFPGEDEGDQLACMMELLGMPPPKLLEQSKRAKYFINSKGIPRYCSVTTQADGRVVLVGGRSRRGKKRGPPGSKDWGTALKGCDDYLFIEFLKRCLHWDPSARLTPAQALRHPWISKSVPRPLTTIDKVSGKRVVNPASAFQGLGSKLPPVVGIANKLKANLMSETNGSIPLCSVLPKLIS

MAO-A = system: MAO-A; parameters: method as in PMID 25240617; settings: 1 μM; cited from earlier work
DYRK4 = target: T10, DYRK4 (Homo sapiens, UniProt Q9NR20); settings: 5 μM; cited from earlier work
T10 construct: purchased ProQinase (Freiburg, Germany)

SMILES: N#CCn1c2c(Br)nccc2c2ccc(Cl)c(Cl)c21 [AnnH79]
- inhibition of DYRK1A-catalysed SF3B1 Thr434 phosphorylation (DYRK1A [1]): does not inhibit DYRK1A

SMILES: COc1ccc2c(c1)[nH]c1c(C)nccc12 [Harmine, harmine]
- Residual activity (% of control) DYRK1A (DYRK1A [2]): 27 % of control
- Residual activity (% of control) DYRK2 (DYRK2 [3]): 92 % of control
- Residual activity (% of control) (DYRK2 [5]; 1 μM): 35 % of control
- Residual activity (% of control) (DYRK2 [5]; 10 μM): 61 % of control
- IC50 (Haspin; ref Cuny et al. 38): 590 nM
- Residual activity (% of control) CLK1 (CLK1 [6]): 23 % of control
- Residual activity (% of control) DYRK1B (DYRK1B [7]): 11 % of control
- Residual activity (% of control) HIPK2 (HIPK2 [8]): 79 % of control
- Residual activity (% of control) (CLK1 [9]; 10 μM): 0 % of control
- Residual activity (% of control) (DYRK1B [10]; 10 μM): 2 % of control
- Residual activity (% of control) (HIPK1; 1 μM): 119 % of control
- Residual activity (% of control) (HIPK1; 10 μM): 14 % of control
- Residual activity (% of control) (HIPK2 [11]; 1 μM): 68 % of control
- Residual activity (% of control) (HIPK2 [11]; 10 μM): 34 % of control
- Residual activity (% of control) (HIPK3; 1 μM): 118 % of control
- Residual activity (% of control) (HIPK3; 10 μM): 44 % of control
- Residual activity (% of control) (HIPK4; 10 μM): 90 % of control
- Residual activity (% of control) (IRAK1): 66 % of control
- Residual activity (% of control) (PIM1; 1 μM): 74 % of control
- Residual activity (% of control) (PIM1; 10 μM): 85 % of control
- Residual activity (% of control) (PIM2; 1 μM): 101 % of control
- Residual activity (% of control) (PIM2; 10 μM): 43 % of control
- Residual activity (% of control) (PIM3; 1 μM): 74 % of control
- Residual activity (% of control) (PIM3; 10 μM): 78 % of control

SMILES: COc1ccc2c3ccnc(C(F)(F)F)c3n(CCCCN)c2c1 [LDN-211898]
- Residual activity (% of control) (CLK2; 10 μM): 1 % of control
- Residual activity (% of control) (CLK3; 10 μM): 63 % of control
- Residual activity (% of control) (DYRK1A [4]; 10 μM): 0 % of control
- Residual activity (% of control) (DYRK2 [5]; 10 μM): 14 % of control
- Residual activity (% of control) (DYRK3; 10 μM): 3 % of control
- Residual activity (% of control) (Haspin; 10 μM): 0 % of control
- Residual activity (% of control) (CLK1 [9]; 10 μM): 0 % of control
- Residual activity (% of control) (DYRK1B [10]; 10 μM): 2 % of control
- Residual activity (% of control) (HIPK1; 10 μM): 59 % of control
- Residual activity (% of control) (HIPK2 [11]; 10 μM): 47 % of control
- Residual activity (% of control) (HIPK3; 10 μM): 51 % of control
- Residual activity (% of control) (HIPK4; 10 μM): 72 % of control
- Residual activity (% of control) (IRAK1): 47 % of control
- Residual activity (% of control) (PIM1; 10 μM): 9 % of control
- Residual activity (% of control) (PIM2; 10 μM): 36 % of control
- Residual activity (% of control) (PIM3; 10 μM): 11 % of control

SMILES: CCCCCCCn1c2cc(OC)ccc2c2ccnc(C)c21 [N9-heptyl harmine]
- inhibition of MAO-A (MAO-A): 13%
- inhibition of DYRK1A (DYRK1A [4]; 1 μM): 85%

SMILES: c1ccc(-c2cc(-c3cncs3)cs2)cc1 [Thiophene 29]
- Residual activity (% of control) (CLK2; 5 μM): 28 % of control
- Residual activity (% of control) (CLK3; 5 μM): 88 % of control
- Residual activity (% of control) (DYRK1A [4]; 5 μM): 10 % of control
- Residual activity (% of control) (DYRK2 [5]; 5 μM): 7 % of control
- Residual activity (% of control) (DYRK3; 5 μM): 34 % of control
- Residual activity (% of control) (DYRK4): 87 % of control
- Residual activity (% of control) (CLK1 [9]; 5 μM): 4 % of control
- Residual activity (% of control) (DYRK1B [10]; 5 μM): 0 % of control
- Residual activity (% of control) (HIPK1; 5 μM): 96 % of control
- Residual activity (% of control) (HIPK4; 5 μM): 93 % of control
- Residual activity (% of control) (PIM1; 5 μM): 78 % of control
- Residual activity (% of control) (PIM2; 5 μM): 93 % of control
